Data published in ChEMBL document CHEMBL5325449, “Influence of N-arylsulfonamido d-valine N-substituents on the selectivity and potency of matrix metalloproteinase inhibitors” (Bioorg Med Chem, 2023).

Key:
Collagenase 3 = Collagenase 3 (Homo sapiens, UniProt P45452); assay: (§1) Inhibition of human recombinant MMP-13 (20 to 471 residues) expressed in NS0 cells using (7-methoxycoumarin-4-y1)-acetyl-Pro-Leu-Gly-Leu-[3-(2,4-dinitropheny1)-L-2,3-diaminopropionyl]-Ala-Arg-NH2 as substrate preincubated with enzyme for 30 mins followed by substrate addition and measured after 10 mins by fluorescence based analysis
[1] = target: Macrophage metalloelastase (Homo sapiens, UniProt P39900, V97L); assay: as §1, with “MMP-12 (17” for “MMP-13 (20”, “470” for “471”, “residues) Val97Leu mutant” for “residues)”; assay type: cell-based
Neutrophil collagenase = Neutrophil collagenase (Homo sapiens, UniProt P22894); assay: as §1, with “MMP-8 (21” for “MMP-13 (20”, “467” for “471”; assay type: cell-based
[2] = target: Matrix metalloproteinase-9 (Homo sapiens, UniProt P14780, Q279R); assay: as §1, with “MMP-9” for “MMP-13”, “707” for “471”, “residues) Gln279Arg mutant” for “residues)”, “CHO” for “NS0”; assay type: cell-based
[3] = target: 72 kDa type IV collagenase (Homo sapiens, UniProt P08253); assay: as §1, with “MMP-2 (34” for “MMP-13 (20”, “660” for “471”, “CHO” for “NS0”; assay type: cell-based
72 kDa type IV collagenase, sequence (P08253 whole entry): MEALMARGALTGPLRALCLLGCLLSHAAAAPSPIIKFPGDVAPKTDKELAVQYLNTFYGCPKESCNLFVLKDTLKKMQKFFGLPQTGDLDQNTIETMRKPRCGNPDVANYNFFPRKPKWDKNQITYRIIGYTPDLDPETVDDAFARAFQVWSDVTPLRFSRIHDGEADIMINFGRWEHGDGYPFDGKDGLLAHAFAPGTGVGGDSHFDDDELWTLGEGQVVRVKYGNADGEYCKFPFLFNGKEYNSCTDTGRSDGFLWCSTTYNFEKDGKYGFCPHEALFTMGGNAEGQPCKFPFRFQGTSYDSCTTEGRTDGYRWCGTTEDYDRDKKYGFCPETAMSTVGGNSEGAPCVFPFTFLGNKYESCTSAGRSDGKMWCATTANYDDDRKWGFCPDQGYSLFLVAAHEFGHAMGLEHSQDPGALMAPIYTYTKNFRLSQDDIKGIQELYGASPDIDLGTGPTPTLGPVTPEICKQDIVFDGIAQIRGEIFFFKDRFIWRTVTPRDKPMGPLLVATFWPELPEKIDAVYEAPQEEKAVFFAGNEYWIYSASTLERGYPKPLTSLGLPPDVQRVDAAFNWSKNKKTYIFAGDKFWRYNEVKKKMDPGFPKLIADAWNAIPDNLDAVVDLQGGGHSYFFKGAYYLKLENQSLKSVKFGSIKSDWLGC

Macrophage metalloelastase, sequence (P39900 whole entry V97L): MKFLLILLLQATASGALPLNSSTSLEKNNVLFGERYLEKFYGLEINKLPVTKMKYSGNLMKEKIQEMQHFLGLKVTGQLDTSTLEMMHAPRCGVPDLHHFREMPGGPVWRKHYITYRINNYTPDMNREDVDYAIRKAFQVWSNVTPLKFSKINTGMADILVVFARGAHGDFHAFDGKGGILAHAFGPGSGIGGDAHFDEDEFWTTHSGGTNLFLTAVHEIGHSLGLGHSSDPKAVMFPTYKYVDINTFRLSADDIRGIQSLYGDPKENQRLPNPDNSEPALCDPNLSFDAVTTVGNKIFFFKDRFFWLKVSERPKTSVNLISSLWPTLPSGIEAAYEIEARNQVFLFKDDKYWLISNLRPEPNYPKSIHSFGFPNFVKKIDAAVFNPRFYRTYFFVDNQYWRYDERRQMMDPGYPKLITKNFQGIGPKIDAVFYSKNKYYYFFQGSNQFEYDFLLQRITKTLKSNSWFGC
Matrix metalloproteinase-9, sequence (P14780 107-707 Q279R limits assumed): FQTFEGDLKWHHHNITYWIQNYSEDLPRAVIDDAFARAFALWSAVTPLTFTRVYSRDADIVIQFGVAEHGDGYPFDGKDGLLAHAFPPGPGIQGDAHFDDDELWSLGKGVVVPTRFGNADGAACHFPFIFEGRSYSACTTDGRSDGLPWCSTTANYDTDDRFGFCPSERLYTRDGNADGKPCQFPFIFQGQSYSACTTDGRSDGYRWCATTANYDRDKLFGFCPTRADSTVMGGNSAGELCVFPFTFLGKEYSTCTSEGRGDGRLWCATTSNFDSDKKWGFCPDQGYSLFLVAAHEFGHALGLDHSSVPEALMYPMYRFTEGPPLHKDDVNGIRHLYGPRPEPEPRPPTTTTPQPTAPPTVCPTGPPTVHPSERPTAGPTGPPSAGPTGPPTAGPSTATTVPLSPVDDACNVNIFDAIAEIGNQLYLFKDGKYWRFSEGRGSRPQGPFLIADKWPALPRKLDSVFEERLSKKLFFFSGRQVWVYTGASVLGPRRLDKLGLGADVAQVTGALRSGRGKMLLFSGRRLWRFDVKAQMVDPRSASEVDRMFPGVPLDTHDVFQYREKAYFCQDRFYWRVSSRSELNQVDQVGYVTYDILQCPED
Neutrophil collagenase, sequence (P22894 whole entry): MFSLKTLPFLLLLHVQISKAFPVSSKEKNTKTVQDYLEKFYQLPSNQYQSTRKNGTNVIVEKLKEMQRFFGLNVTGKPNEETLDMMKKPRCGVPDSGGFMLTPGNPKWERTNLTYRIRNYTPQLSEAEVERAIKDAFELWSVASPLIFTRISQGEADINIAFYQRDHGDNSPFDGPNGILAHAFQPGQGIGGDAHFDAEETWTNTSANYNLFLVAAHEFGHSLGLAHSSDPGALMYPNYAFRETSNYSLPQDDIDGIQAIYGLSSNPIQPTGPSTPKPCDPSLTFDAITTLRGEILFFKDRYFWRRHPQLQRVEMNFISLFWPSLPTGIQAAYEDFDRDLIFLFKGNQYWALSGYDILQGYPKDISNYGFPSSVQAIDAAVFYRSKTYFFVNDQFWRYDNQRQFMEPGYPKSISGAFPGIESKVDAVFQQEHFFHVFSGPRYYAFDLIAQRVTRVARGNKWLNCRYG

Row | Compound | IC50 (Collagenase 3) [nM] | IC50 [1] [nM] | IC50 (Neutrophil collagenase) [nM] | IC50 [2] [nM] | IC50 [3] [nM]
1 | Cc1ccc(-c2noc(-c3ccc(S(=O)(=O)N[C@@H](C(=O)O)C(C)C)cc3)n2)s1 | 57 | 14 | 26 | 13 | 4
2 | CC(C)[C@@H](NS(=O)(=O)c1ccc(-c2nc(-c3ccc(Cn4cc(CCCF)nn4)s3)no2)cc1)C(=O)O | 12 | 13 | 22 | 102 | 16
3 | Cc1ccc(-c2noc(-c3ccc(S(=O)(=O)N(CCCCCCCCCCCCN=[N+]=[N-])[C@@H](C(=O)O)C(C)C)cc3)n2)s1 | 2000 | 4000 | 923 | 933 | 57
4 | Cc1ccc(-c2noc(-c3ccc(S(=O)(=O)N(Cc4ccccc4)[C@@H](C(=O)O)C(C)C)cc3)n2)s1 | 987 | 113 | 580 | 95 | 5
5 | CCCCCCCCCCCCCCCCN([C@@H](C(=O)O)C(C)C)S(=O)(=O)c1ccc(-c2nc(-c3ccc(C)s3)no2)cc1 | > 10000 | > 10000 | > 10000 | > 10000 | > 10000
6 | Cc1ccc(-c2noc(-c3ccc(S(=O)(=O)N(C)[C@@H](C(=O)O)C(C)C)cc3)n2)s1 | 370 | 37 | 13 | 36 | 5
7 | CC(C)[C@@H](NS(=O)(=O)c1ccc(-c2nc(-c3ccc(Cn4cc(CCCCCF)nn4)s3)no2)cc1)C(=O)O | 36 | 29 | 89 | 1000 | 22
8 | CCN([C@@H](C(=O)O)C(C)C)S(=O)(=O)c1ccc(-c2nc(-c3ccc(C)s3)no2)cc1 | 252 | 58 | 149 | 33 | 0.7
9 | Cc1ccc(-c2noc(-c3ccc(S(=O)(=O)N(CCCC(F)(F)F)[C@@H](C(=O)O)C(C)C)cc3)n2)s1 | 391 | 164 | 371 | 154 | 28
10 | CCCCCCCCN([C@@H](C(=O)O)C(C)C)S(=O)(=O)c1ccc(-c2nc(-c3ccc(C)s3)no2)cc1 | > 10000 | 3600 |  | 4000 | 990
11 | CCCCN([C@@H](C(=O)O)C(C)C)S(=O)(=O)c1ccc(-c2nc(-c3ccc(C)s3)no2)cc1 | 212 | 105 | 547 | 87 | 10
12 | Cc1ccc(-c2noc(-c3ccc(S(=O)(=O)N(CCOCOCCCOCCN=[N+]=[N-])[C@@H](C(=O)O)C(C)C)cc3)n2)s1 | 93 | 182 | 83 | 36 | 8
13 | CCCN([C@@H](C(=O)O)C(C)C)S(=O)(=O)c1ccc(-c2nc(-c3ccc(C)s3)no2)cc1 | 350 | 26 | 190 | 92 | 5
14 | Cc1ccc(-c2noc(-c3ccc(S(=O)(=O)N(CCF)[C@@H](C(=O)O)C(C)C)cc3)n2)s1 | 458 | 36 | 90 | 34 | 0.59
15 | CCCCCCN([C@@H](C(=O)O)C(C)C)S(=O)(=O)c1ccc(-c2nc(-c3ccc(C)s3)no2)cc1 | 333 | 527 | > 10000 | 329 | 80
16 | Cc1ccc(-c2noc(-c3ccc(S(=O)(=O)N(CCCCF)[C@@H](C(=O)O)C(C)C)cc3)n2)s1 | 96 | 41 | 101 | 25 | 3
17 | CCCCCN([C@@H](C(=O)O)C(C)C)S(=O)(=O)c1ccc(-c2nc(-c3ccc(C)s3)no2)cc1 | 104 | 162 | 466 | 87 | 32
